Assays:
CIA = experiment: Collagen-induced arthritis (CIA) model; type: in vivo, C57BL mice
Arid5a = target: T1, Arid5a (Mus musculus, UniProt Q3U108); experiment: Luciferase assay of Arid5a stabilizing function on 3′UTR of target mRNAs in HEK293T cells; type: cell-based
T1 construct: Flag; expressed in transfected cells; host or cells: HEK293T
T1 sequence (Q3U108 1-590): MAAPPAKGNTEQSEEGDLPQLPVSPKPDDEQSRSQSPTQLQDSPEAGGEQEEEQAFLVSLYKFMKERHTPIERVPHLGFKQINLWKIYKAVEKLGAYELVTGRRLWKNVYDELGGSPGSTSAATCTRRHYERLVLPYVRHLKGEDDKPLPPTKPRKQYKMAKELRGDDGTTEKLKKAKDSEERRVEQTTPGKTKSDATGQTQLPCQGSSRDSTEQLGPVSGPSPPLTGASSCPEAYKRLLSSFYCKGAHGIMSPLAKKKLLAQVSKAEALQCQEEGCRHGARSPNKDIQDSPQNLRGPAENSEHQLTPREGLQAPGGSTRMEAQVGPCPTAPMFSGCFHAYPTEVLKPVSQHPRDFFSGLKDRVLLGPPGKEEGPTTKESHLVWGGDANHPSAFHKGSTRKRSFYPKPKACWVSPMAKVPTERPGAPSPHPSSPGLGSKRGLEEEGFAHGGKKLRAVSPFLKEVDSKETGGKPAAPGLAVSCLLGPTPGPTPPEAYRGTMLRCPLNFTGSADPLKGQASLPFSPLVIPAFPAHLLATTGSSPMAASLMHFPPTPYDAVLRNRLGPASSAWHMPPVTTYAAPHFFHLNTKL
Protocol: Briefly, HEK293T cells were transfected with luciferase pGL-3 and empty pcDNA3.1 plasmids (Control), or pGL-3 plasmid encoding the 3′UTR of OX40, Il6 or Stat3, together with Arid5a-expressing pcDNA3.1 plasmid. The cells were treated with DMSO (Control and Arid5a) or POE (10-60 μM) dissolved in DMSO. The mouse Arid5a (NP_001165676.1) cDNA (WT; ENSMUST00000115032.7) was cloned in a Flag-tagged pcDNA3.1 plasmid at Xba1 and Ecor1. Renilla-expressing plasmid was used as a control. Luciferase activity from cell lysates is shown relative to Control in FIGS. 1A-1C.
HEK293 T cells (ATCC) were transfected (Lipofectamine LTX; Invitrogen) with luciferase pGL-3 and empty peDNA 3.1 plasmids (Control), or pGL-3 plasmid encoding the 3′UTR of IL6 together with Arid5a-expressing pcDNA3.1 plasmid. Renila-expressing plasmid was used as a Control. The cells were treated with DMSO (Control and Arid5a) or POE or its analogs A1-3 (40 μM; Aurora) dissolved in DMSO. The mouse Arid5a (NP_001165676.1) cDNA (WT; ENSMUST00000115032.7) was cloned in a Flag-tagged pcDNA3.1 plasmid at Xba1 and EcoR1.
To examine whether the Arid5a inhibitors interact with the target domain of Arid5a (Pocket X), substitution mutations were introduced to the wild-type (WT) Arid5a at Phe56, Tyr137 and His140 to produce mutant Arid5a (mArid5a). Mutations were introduced to substitute Phe56 with Cys, Tyr137 with Ala, and His140 with Ala. Luciferase activity from cell lysates was quantified using a Dual Luciferase kit (Promega) and the results were shown relative to the Control.

EAE = experiment: Experimental autoimmune encephalomyelitis (EAE) model of multiple sclerosis; type: in vivo, C57BL/6 female mice
IMQ-induced psoriasis = IMQ-induced psoriasis model; type: in vivo, male BALB/c mice
Protocol: Experimental psoriasis was induced following a modified method described previously (Sun et al. 2013). To induce disease in male BALB/c mice (6-8 weeks; n=6), imiquimod (IMG; Sichuan Med-Shine Pharmaceutical) at 5% was applied topically at 20 mg/cm^2 on the inside of the right ear for 8 consecutive days. An evaluation system for assessment of erythema and thickness of the ear was developed. Erythema was assessed using a table with red […] (0-4) and ear thickness (0-4) measured using a digital caliber on days 2, 4, 6, and 8 after first IMQ application. The sum of the two parameters scores (ranging from 0-8) was used to indicate the overall clinical score. Treatment ointment was prepared by mixing 1 mg of DMSO-dissolved POE or its representative analogs including POE A2 or POE A3 with 20 gm of Vaseline Petroleum Jelly Original (vehicle, Unilever Inc.); the mixture was then incubated at room temperature overnight. From day 0 to day 8 the mice were treated topically with the treatment ointment (40 mg/cm^2) or Vaseline (IMQ/control). The mRNAs encoding Il6 and Il17a were isolated from whole biopsies of the ear (day 8) and reverse transcribed to make cDNA. The cDNA was then amplified by real-time PCR using TaqMan Gene Expression Assays (Mm00446190_ml, Mm00439618_ml, respectively; Applied Biosystems). The relative expression of mRNAs was calculated by the ΔΔCt method and presented relative to that of IMQ control mice.

[1] = 0.5 mg i.p., day 24, vs corn oil, FIG. 5B
[2] = topical ointment, day 8, FIG. 8B

**Q.** With `O=C(CSc1nnc(-c2ccncc2)o1)c1ccccc1` [POE, 1-Phenyl-2-(5-pyridin-4-yl-[1,3,4]oxadiazol-2-ylsulfanyl)-ethanone] as the compound, how does the CIA clinical scores (CIA; 0.25 mg i.p. on days 0, 3, 6, 9, 12, 15, 18, vs corn oil, FIG. 7A) read?
**A.** Its CIA clinical scores is “comparably reduced CIA clinical scores”.

**Q.** And the “Serum level of IL-6” value (CIA; 0.25 mg i.p., day 45, FIG. 7B)?
**A.** The value was “reduced serum levels of IL-6”.

**Q.** And the “Frequency of CD4+IL-17+ cells in the secondary lymphoid organs” value (CIA; 0.25 mg i.p., day 45, flow cytometry, FIG. 7C)?
**A.** The value was “reduced the frequency of CD4^+IL-17^+ cells”.

**Q.** And the “Arid5a stabilizing function on Il6 3′UTR (luciferase activity relative to Control)” value (Arid5a; 40 μM, HEK293 T cells, WT Arid5a, FIG. 6)?
**A.** Its value is “abolished the stabilizing function of Arid5a”.

**Q.** What about the “Arid5a stabilizing function on the OX40 3′UTR (luciferase activity relative to Control)” value (Arid5a; POE 10-60 μM, HEK293T cells, FIG. 1A) of the same compound?
**A.** Its value is “inhibits Arid5a stabilizing function”.

**Q.** What about the “Arid5a stabilizing function on the Il6 3′UTR (luciferase activity relative to Control)” value (Arid5a; POE 10-60 μM, HEK293T cells, FIG. 1B) of the same compound?
**A.** Its value is “inhibits Arid5a stabilizing function”.

**Q.** What about the “Arid5a stabilizing function on the Stat3 3′UTR (luciferase activity relative to Control)” value (Arid5a; POE 10-60 μM, HEK293T cells, FIG. 1C) of the same compound?
**A.** Its value is “inhibits Arid5a stabilizing function”.

**Q.** And the EAE clinical scores (EAE; 0.5 mg i.p. per day, days 0-3, vs corn oil, FIG. 5A)?
**A.** The EAE clinical scores was “reduces EAE clinical scores”.

**Q.** What about the “Serum level of IL-6” value (EAE; [1]) of the same compound?
**A.** The value was “reduces serum levels of IL-6 and TNF-α”.

**Q.** What about the “Serum level of TNF-α” value (EAE; [1]) of the same compound?
**A.** The value was “reduces serum levels of IL-6 and TNF-α”.

**Q.** And the “Expression of OX40 mRNA in CD4+ T cells isolated from the CNS” value (EAE; 10 days after disease induction, FIG. 5D)?
**A.** The value was “reduces the expression of OX40 mRNA”.

**Q.** And the “Frequency of CD4+OX40+ T cells in the CNS” value (EAE; 10 days after disease induction, flow cytometry, FIG. 5E)?
**A.** Its value is “reduces the frequency of CD4^+OX40^+ T cells”.

**Q.** And the “Level of IL-17 in culture supernatant of encephalitogenic CD4+ T cells on restimulation” value (EAE; lymph node cells restimulated with MOG35-55 and IL-23 72 h, FIG. 5C)?
**A.** The value was “reduces the level of IL-17”.

**Q.** And the “Clinical scores (erythema and thickness of the right ear)” value (IMQ-induced psoriasis; topical ointment 40 mg/cm^2 day 0 to 8, vs Vaseline, FIG. 8A)?
**A.** The value was “comparably reduced clinical scores”.

**Q.** What about the “Il6 mRNA expression in whole biopsies of the right ear” value (IMQ-induced psoriasis; [2]) of the same compound?
**A.** The value was “suppressed mRNA expression”.

**Q.** And the “Il17a mRNA expression in whole biopsies of the right ear” value (IMQ-induced psoriasis; [2])?
**A.** Its value is “suppressed mRNA expression”.
